Measured values taken from patent US11566018B2, “Treatment of infectious disease” (The Governors of the University of Alberta, priority 2018, dated 2023).

Assays:
[1] = MTT cell viability assay; type: cell-based, human; conditions: human; 1HAEo- cells, dose response; read-out: CC50 (cytotoxic concentration at which cell viability is reduced by half)
Procedure: (§1) MTT cell viability assay. 1HAEo-cells were grown in parallel with infected and compound treated cells in SAR and dose response experiments. 0.3 mg/mL of MTT ((3-(4,5-dimethylthiazol-2-yl)-2,5-diphenyl tetrazolium bromide)) in PBS was added to wells and incubated for 1 hour. Precipitate was dissolved in DMSO and absorbance was measured at 570 nm.

[2] = test system: RSV-GFP-A2; assay: Mutant escape assay (serial passage); type: cell-based, human RSV strain A2; conditions: 14 serial passages over five weeks, 1HAEo- cells
Procedure: Mutant escape assay. 1HAEo-cells were infected with RSV-GFP-A2 at an initial MOI of 0.1 and serial passaged over incubation periods of 48-72 hours. Samples were collected during passaging and stored in liquid nitrogen for tittering via indirect immunofluorescence assay. Ongoing low level viral infection during passaging was confirmed by identification of green fluorescence from GFP produced by the RSV-GFP in infected cells.
An established challenge to development of antiviral pharmaceuticals is the evolution of antiviral resistance. This is pronounced for viruses with RNA genome due to an inherent error-prone process of RNA-dependent RNA polymerase replication of a viral genome. Error prone replication results in a high mutation rate of RNA viruses that leads to development of antiviral resistance. As such, development of resistant mutants to compounds 5a and 5f was undertaken, as the site of mutations could provide further insights into the nature of the viral target.

[3] = test system: RSV-A2-GFP; assay: Dose response experiments, progeny virus titered on HeLa cells; type: cell-based, human RSV strain A2; conditions: 1HAEo- cells
Procedure: Dose response experiments. 1HAEo-cells were infected as described, progeny virus collected, and tittered on HeLa cells in duplicate as described in SAR 2. During initial infection in 1HAEo-cells infectious media was replaced with media containing compounds at indicated concentrations at 2 hours post infection. Proportion of virus infected cells were quantified via indirect immunofluorescence assay.
To further assess the therapeutic potential of compounds identified in SAR 1 and SAR 2, a therapeutic index (TI) of each compound was identified (e.g., ratio of […]). […] Overall, the TI was increased from 4.1 for compound 5a to 12.3 with compound 5f.

[4] = test system: 1HAEo- cells; assay: MTT cell viability assay; type: cell-based, human; conditions: compounds at 10 μM, SAR screens
Procedure: as §1

[5] = test system: RSV-A2-GFP; assay: Structure activity relationship screens of antiviral activity (SAR 1/SAR 2); progeny virus by indirect immunofluorescence; type: cell-based, human RSV strain A2; conditions: compounds at 10 μM, 1HAEo- cells, progeny virus on HeLa indicator cells
Procedure: (§2) Cells and virus. Hep-2 cells were grown in Opti-MEM media supplemented with 2% fetal bovine serum (FBS), 1HAEo-cells were grown in MEM media supplemented with 10% FBS, and Hela cells grown in DMEM supplemented with 10% FBS. Infections were conducted using human RSV strain A2 or RSV-A2-GFP strain described previously [Hallak, L. K.; Spillmann, D.; Collins, P. L.; Peeples, M. E. J. Virol. 2000, 74, 10508-10513]. A549 cells and Vero cells were grown in DMEM supplemented with 10% FBS and used for experiments with ZIKV (Cambodia strain).
Structure activity relationship screens of antiviral activity. 1HAEo-cells were seeded at 80% confluency and incubated overnight. In SAR1 cells were preincubated with compounds for one hour at 20 μM prior to infection, followed by dilution to 10 μM and infection with RSV-A2-GFP at an MOI of 1 for 2 hours. In SAR2 1HAEo-cells were infected with RSV-A2-GFP at an MOI of 0.5 for 2 hours without pre-incubation with compounds. At 2 hours post infection, infectious media was removed from wells to prevent carry over of infecting virus into progeny collections. Fresh media containing compounds at 10 μM was added for remainder of 48 hour incubation. […]
Progeny virus quantification via indirect immunofluorescence. […] Total cells (identified by DAPI staining) and infected cells were counted via the Operetta high content imaging system at 20x objective magnification. […]

[6] = test system: ZIKV (Cambodia strain); assay: Zika Virus antiviral screen (plaque assay); type: cell-based; conditions: 10 μM, progeny virus quantified on Vero cells by plaque assay, n=3
Procedure: as §2
Zika Virus antiviral screen. Vero cells were pre-treated with bis(indole) compounds at 10 μM for 4 hours before infection with ZIKV at an MOI of 1. After 48 hour infection progeny ZIKV was collected, serial diluted over 6 logs, and transferred onto fresh Vero cell monolayers and incubated for 4 days. Vero cell monolayers were then fixed with 10% formaldehyde and stained with crystal violet; viral infection was quantified via plaque assay.
ZIKV constitutes a virus distinct from RSV with a markedly different intracellular replication strategy. Both viruses encode a viral RdRp essential to viral replication; however, the structure and function of RSV RdRp and ZIKV RdRp are quite different. […] RSV polymerase recognizes cis-acting ‘gene start’ and ‘gene end’ elements of the viral genome to produce subgenomic mRNAs enabling translation of viral proteins. […]

[7] = target: T1, RSV viral replication complex (Human respiratory syncytial virus A, UniProt P28887); assay: Cell extract-based in vitro inhibition of viral transcription; type: biochemical, RSV A2
T1 construct: endogenous in cells; crude lysolecithin cell extract
T1 sequence (P28887 whole entry): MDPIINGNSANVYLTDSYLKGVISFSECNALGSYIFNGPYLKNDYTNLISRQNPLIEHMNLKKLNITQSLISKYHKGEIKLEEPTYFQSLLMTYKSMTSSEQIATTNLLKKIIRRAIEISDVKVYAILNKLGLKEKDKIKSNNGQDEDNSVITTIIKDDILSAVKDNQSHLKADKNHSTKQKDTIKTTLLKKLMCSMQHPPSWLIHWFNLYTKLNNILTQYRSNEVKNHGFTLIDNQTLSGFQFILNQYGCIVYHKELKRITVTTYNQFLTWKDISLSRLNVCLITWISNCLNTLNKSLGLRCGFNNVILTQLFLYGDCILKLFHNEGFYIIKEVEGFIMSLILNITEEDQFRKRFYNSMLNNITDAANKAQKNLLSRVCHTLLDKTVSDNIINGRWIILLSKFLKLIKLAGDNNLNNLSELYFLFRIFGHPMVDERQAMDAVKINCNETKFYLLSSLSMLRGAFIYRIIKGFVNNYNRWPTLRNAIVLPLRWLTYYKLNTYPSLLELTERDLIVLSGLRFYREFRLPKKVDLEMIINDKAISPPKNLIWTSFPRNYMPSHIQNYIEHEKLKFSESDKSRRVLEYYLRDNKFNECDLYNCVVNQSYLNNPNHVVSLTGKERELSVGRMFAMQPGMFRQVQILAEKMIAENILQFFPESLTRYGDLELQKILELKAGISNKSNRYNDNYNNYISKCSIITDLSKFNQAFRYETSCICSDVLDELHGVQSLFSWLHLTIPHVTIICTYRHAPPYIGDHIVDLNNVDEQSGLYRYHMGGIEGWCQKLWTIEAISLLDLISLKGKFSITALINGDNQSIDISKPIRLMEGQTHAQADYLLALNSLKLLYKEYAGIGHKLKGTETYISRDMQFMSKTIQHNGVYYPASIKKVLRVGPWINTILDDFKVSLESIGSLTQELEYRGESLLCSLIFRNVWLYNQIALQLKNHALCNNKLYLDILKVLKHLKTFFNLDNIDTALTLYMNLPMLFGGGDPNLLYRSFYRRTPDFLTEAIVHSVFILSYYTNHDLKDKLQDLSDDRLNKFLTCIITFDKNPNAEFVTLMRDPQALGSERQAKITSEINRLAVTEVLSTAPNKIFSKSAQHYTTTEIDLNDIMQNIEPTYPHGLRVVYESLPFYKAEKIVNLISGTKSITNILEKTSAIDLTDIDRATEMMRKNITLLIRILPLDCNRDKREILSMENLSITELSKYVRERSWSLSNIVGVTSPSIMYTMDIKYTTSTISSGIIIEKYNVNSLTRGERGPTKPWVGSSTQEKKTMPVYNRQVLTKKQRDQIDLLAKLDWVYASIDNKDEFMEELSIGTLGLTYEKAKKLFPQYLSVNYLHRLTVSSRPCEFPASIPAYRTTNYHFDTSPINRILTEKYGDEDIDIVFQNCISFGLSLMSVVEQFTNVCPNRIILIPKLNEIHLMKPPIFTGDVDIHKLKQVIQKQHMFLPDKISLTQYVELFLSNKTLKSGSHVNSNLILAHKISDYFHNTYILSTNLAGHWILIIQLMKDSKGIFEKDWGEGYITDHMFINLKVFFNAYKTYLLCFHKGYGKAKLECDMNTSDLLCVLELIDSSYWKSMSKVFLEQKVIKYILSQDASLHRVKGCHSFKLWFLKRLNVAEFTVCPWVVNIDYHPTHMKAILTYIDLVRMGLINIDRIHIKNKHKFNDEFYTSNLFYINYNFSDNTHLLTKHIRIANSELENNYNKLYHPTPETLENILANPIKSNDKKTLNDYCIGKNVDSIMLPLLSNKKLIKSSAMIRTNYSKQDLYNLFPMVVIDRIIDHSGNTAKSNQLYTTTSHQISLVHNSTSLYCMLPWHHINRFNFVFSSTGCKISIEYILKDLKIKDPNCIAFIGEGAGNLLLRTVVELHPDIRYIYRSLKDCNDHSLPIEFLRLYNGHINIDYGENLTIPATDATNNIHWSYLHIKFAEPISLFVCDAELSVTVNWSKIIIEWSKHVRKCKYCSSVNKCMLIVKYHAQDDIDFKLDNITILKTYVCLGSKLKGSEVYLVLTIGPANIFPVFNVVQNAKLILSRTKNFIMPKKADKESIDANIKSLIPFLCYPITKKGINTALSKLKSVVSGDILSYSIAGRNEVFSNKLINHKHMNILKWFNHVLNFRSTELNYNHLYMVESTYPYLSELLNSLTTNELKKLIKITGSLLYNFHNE
T1 sequence (P03421 whole entry, further chain): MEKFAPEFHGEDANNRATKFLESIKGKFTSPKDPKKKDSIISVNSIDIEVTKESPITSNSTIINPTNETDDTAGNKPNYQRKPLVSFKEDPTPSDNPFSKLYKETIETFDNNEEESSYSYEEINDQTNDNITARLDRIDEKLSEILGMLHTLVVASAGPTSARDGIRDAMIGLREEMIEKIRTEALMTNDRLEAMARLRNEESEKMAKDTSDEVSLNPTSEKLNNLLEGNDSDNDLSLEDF

Work on `COC(=O)C1(c2c(-c3ccc(OC)cc3)[nH]c3ccccc23)Nc2cc(Cl)ccc2C1=O` (stereo not shown) [Compound 5b] yielded a CC50 [1] of 59.2 µM.
With `COC(=O)C1(c2c(-c3ccc(OC)cc3)[nH]c3ccccc23)Nc2cc(Br)ccc2C1=O` (stereo not shown) [Compound 5f] the CC50 [1] was 93.5 µM and the “development of resistant virus” value [2] was “did not result in the development of viruses resistant to either compound”.
For `COC(=O)C1(c2cn(C)c3ccccc23)Nc2cc(Cl)ccc2C1=O` (stereo not shown) [Compound 2p], the “viral replication at concentrations tolerated by the host cell” value [3] was “viral replication was not diminished at compound concentrations tolerated by the host cell”, the CC50 [1] was 22.8 µM and the “cytotoxicity (cell viability)” value [4] was “demonstrated cytotoxicity in SAR 1”.
For `COC(=O)C1(c2c(-c3ccccc3)[nH]c3ccccc23)Nc2cc(Cl)ccc2C1=O` (stereo not shown) [Compound 5a], the “antiviral activity (inhibition of RSV infection)” value [5] was “comparable to that of the known antiviral guanosine-analogue drug ribavirin”, the “viral replication at concentrations tolerated by the host cell” value [3] was “consistently inhibited viral replication at concentrations tolerated by the host cell” and the CC50 [1] was 42.5 µM. The “cytotoxicity (cell viability)” value [4] was “no cytotoxicity”, the “inhibition of ZIKV infection” value [6] was “Significant inhibition” and the “development of resistant virus” value [2] was “did not result in the development of viruses resistant to either compound”. For the same compound, the “viral transcription from the RSV replication complex” value [7] was “Decreasing viral transcription from the RSV replication complex was observed in a dose dependent manner”.
